Results published in publication PMC10862732 (bioRxiv, 2024).

Test system: T7 LysY/Iq E. coli
Assay type: cell-based
Conditions: 0 – 0.5 mM IPTG, 37 °C, 12 hours, OD600

## RRIRFRPPYL•••G••PRFPPPFPIPRIPRIP [Tur1a]
  Host growth upon induction of AMP expression with IPTG (self-depletion): dramatically slowed growth
